The source of these data is ChEMBL document CHEMBL4017493, “Peptide Half-Life Extension: Divalent, Small-Molecule Albumin Interactions Direct the Systemic Properties of Glucagon-Like Peptide 1 (GLP-1) Analogues” (J Med Chem, 2017).

By half-life is commonly meant the time needed for the level to fall by half in the phase considered. Read a high half-life as slow loss. By Tmax is commonly meant the time from dosing to the highest level.

Data set [1] deals with Mus musculus. Briefly: Antiobesity activity in NMRI mouse assessed as reduction in cumulative food intake at 10 nmol/ml, sc measured up to 20 hrs. Format: functional, organism-based.
Data set [2] concerns Mus musculus. The data set can be described thus: Antidiabetic activity in NMRI mouse assessed as blood glucose AUC (0 to 120 mins) at 10 nmol/ml, sc administered 45 mins prior to glucose challenge by OGTT (reference value: 1725 +/- 257 mmol/L). Format: functional, organism-based. Also on record: dose 10 nmol/ml, time < 2 hr.
A short description of data set [3]: Half life in C57Bl/6 mouse plasma at 10 nmol/ml, sc. Format: ADME.
Data set [4] in a line: Induction of self aggregation in pH 7.4 PBS buffer assessed as retention volume by size exclusion chromatographic method.
Data set [5] concerns Mus musculus. Briefly: Antiobesity activity in NMRI mouse assessed as reduction in acute food intake at 10 nmol/ml, sc measured up to 20 hrs. Format: functional, organism-based.
Data set [6] in a line: Tmax in C57Bl/6 mouse plasma at 10 nmol/ml, sc. Format: ADME.
The next data set has as its target Albumin (Homo sapiens, UniProt P02768). The data set can be described thus: Binding affinity to human serum albumin by SPR analysis. Format: ADME. The following applies: isolated protein. For orientation: In SPR one partner is held on a chip, and binding of the other changes the refractive index at the surface.
The nature of data set [7]: Induction of self aggregation in pH 7.4 PBS buffer assessed as supramolecular hydrodynamic radii at 1 mg/ml by dynamic light scattering method.
Data set [8] can be described thus: Induction of monodisperse self aggregation in pH 7.4 PBS buffer by dynamic light scattering method.
Data set [9] deals with Mus musculus. The data set can be described thus: Antiobesity activity in NMRI mouse assessed as food intake at 10 nmol/ml, sc measured after 20 hrs (reference value: 3.51 +/- 0.49 g). Format: functional.
A short description of data set [10]: Half life in iv dosed human. The conditions noted are these: in vivo. Format: ADME, organism-based.

Active and inactive are the calls of the source.

Albumin, sequence (P02768 whole entry): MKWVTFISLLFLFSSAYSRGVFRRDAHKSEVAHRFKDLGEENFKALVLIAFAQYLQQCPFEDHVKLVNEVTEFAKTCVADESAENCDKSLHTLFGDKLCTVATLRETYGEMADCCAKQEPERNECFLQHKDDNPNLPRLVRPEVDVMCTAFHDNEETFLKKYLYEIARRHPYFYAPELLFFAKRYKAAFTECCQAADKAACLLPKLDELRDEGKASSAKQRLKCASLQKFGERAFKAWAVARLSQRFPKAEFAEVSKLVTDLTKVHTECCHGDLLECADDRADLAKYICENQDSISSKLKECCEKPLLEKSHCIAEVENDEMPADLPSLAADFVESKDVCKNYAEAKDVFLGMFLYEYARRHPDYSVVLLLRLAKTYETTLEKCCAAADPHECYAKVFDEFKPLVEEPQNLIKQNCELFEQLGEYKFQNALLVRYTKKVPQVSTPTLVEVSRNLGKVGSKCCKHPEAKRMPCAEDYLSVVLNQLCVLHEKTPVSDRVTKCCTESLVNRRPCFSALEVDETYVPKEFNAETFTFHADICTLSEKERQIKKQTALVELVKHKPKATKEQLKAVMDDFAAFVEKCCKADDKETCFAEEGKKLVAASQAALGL

As to `CC[C@H](C)[C@H](NC(=O)[C@H](Cc1ccccc1)NC(=O)[C@H](CCC(=O)O)NC(=O)[C@H](CCCCNC(=O)COCCOCCNC(=O)COc1ccc(-c2ccc(F)cc2F)cc1C(=O)O)NC(=O)[C@H](C)NC(=O)[C@H](C)NC(=O)[C@H](CCC(N)=O)NC(=O)CNC(=O)[C@H](CCC(=O)O)NC(=O)[C@H](CC(C)C)NC(=O)[C@H](Cc1ccc(O)cc1)NC(=O)[C@H](CO)NC(=O)[C@H](CO)NC(=O)[C@@H](NC(=O)[C@H](CC(=O)O)NC(=O)[C@H](CO)NC(=O)[C@@H](NC(=O)[C@H](Cc1ccccc1)NC(=O)[C@@H](NC(=O)CNC(=O)[C@H](CCC(=O)O)NC(=O)[C@H](C)NC(=O)[C@@H](N)Cc1cnc[nH]1)[C@@H](C)O)[C@@H](C)O)C(C)C)C(=O)N[C@@H](C)C(=O)N[C@@H](Cc1c[nH]c2ccccc12)C(=O)N[C@@H](CC(C)C)C(=O)N[C@H](C(=O)N[C@@H](CCCNC(=N)N)C(=O)NCC(=O)N[C@@H](CCCNC(=N)N)C(=O)NCC(=O)O)C(C)C`, the outcome in the data set with Mus musculus [1] was inactive.

Turning to `CC[C@H](C)[C@H](NC(=O)[C@H](Cc1ccccc1)NC(=O)[C@H](CCC(=O)O)NC(=O)[C@H](CCCCNC(=O)COCCOCCNC(=O)[C@H](CCCNC(=O)COc1ccc(-c2ccc(F)cc2F)cc1C(=O)O)NC(=O)CC[C@H](NC(=O)Cc1c(C)n(C(=O)c2ccc(Cl)cc2)c2ccc(OC)cc12)C(=O)O)NC(=O)[C@H](C)NC(=O)[C@H](C)NC(=O)[C@H](CCC(N)=O)NC(=O)CNC(=O)[C@H](CCC(=O)O)NC(=O)[C@H](CC(C)C)NC(=O)[C@H](Cc1ccc(O)cc1)NC(=O)[C@H](CO)NC(=O)[C@H](CO)NC(=O)[C@@H](NC(=O)[C@H](CC(=O)O)NC(=O)[C@H](CO)NC(=O)[C@@H](NC(=O)[C@H](Cc1ccccc1)NC(=O)[C@@H](NC(=O)CNC(=O)[C@H](CCC(=O)O)NC(=O)[C@H](C)NC(=O)[C@@H](N)Cc1cnc[nH]1)[C@@H](C)O)[C@@H](C)O)C(C)C)C(=O)N[C@@H](C)C(=O)N[C@@H](Cc1c[nH]c2ccccc12)C(=O)N[C@@H](CC(C)C)C(=O)N[C@H](C(=O)N[C@@H](CCCNC(=N)N)C(=O)NCC(=O)N[C@@H](CCCNC(=N)N)C(=O)NCC(=O)O)C(C)C`, the outcome in the data set with Mus musculus [1] was Active.

On to `CC[C@H](C)[C@H](NC(=O)[C@H](Cc1ccccc1)NC(=O)[C@H](CCC(=O)O)NC(=O)[C@H](CCCCNC(=O)CC[C@H](NC(=O)Cc1c(C)n(C(=O)c2ccc(Cl)cc2)c2ccc(OC)cc12)C(=O)O)NC(=O)[C@H](C)NC(=O)[C@H](C)NC(=O)[C@H](CCC(N)=O)NC(=O)CNC(=O)[C@H](CCC(=O)O)NC(=O)[C@H](CC(C)C)NC(=O)[C@H](Cc1ccc(O)cc1)NC(=O)[C@H](CO)NC(=O)[C@H](CO)NC(=O)[C@@H](NC(=O)[C@H](CC(=O)O)NC(=O)[C@H](CO)NC(=O)[C@@H](NC(=O)[C@H](Cc1ccccc1)NC(=O)[C@@H](NC(=O)CNC(=O)[C@H](CCC(=O)O)NC(=O)[C@H](C)NC(=O)[C@@H](N)Cc1cnc[nH]1)[C@@H](C)O)[C@@H](C)O)C(C)C)C(=O)N[C@@H](C)C(=O)N[C@@H](Cc1c[nH]c2ccccc12)C(=O)N[C@@H](CC(C)C)C(=O)N[C@H](C(=O)N[C@@H](CCCNC(=N)N)C(=O)NCC(=O)N[C@@H](CCCNC(=N)N)C(=O)NCC(=O)O)C(C)C`, for which the AUC in the data set with Mus musculus [2] was 614 mmol·min/L. In data set [3], this compound came in with a half-life of 55 min. The result in the data set on Mus musculus [1] and in the data set with Mus musculus [5] was inactive. Also, in [4], the Vr is 6.8 to 16 mL. In data set [6], the Tmax worked out at 30 min. In addition, on Albumin, the PB result was “Dose-dependent effect”.

For the compound `CC[C@H](C)[C@H](NC(=O)[C@H](Cc1ccccc1)NC(=O)[C@H](CCC(=O)O)NC(=O)[C@H](CCCCNC(=O)COc1ccc(-c2ccccc2)cc1C(=O)O)NC(=O)[C@H](C)NC(=O)[C@H](C)NC(=O)[C@H](CCC(N)=O)NC(=O)CNC(=O)[C@H](CCC(=O)O)NC(=O)[C@H](CC(C)C)NC(=O)[C@H](Cc1ccc(O)cc1)NC(=O)[C@H](CO)NC(=O)[C@H](CO)NC(=O)[C@@H](NC(=O)[C@H](CC(=O)O)NC(=O)[C@H](CO)NC(=O)[C@@H](NC(=O)[C@H](Cc1ccccc1)NC(=O)[C@@H](NC(=O)CNC(=O)[C@H](CCC(=O)O)NC(=O)[C@H](C)NC(=O)[C@@H](N)Cc1cnc[nH]1)[C@@H](C)O)[C@@H](C)O)C(C)C)C(=O)N[C@@H](C)C(=O)N[C@@H](Cc1c[nH]c2ccccc12)C(=O)N[C@@H](CC(C)C)C(=O)N[C@H](C(=O)N[C@@H](CCCNC(=N)N)C(=O)NCC(=O)N[C@@H](CCCNC(=N)N)C(=O)NCC(=O)O)C(C)C`, in data set [4], the Vr lay in the range of 9.8 to 16 mL.

For the compound `CC[C@H](C)[C@H](NC(=O)[C@H](Cc1ccccc1)NC(=O)[C@H](CCC(=O)O)NC(=O)[C@H](CCCCN)NC(=O)[C@H](C)NC(=O)[C@H](C)NC(=O)[C@H](CCC(N)=O)NC(=O)CNC(=O)[C@H](CCC(=O)O)NC(=O)[C@H](CC(C)C)NC(=O)[C@H](Cc1ccc(O)cc1)NC(=O)[C@H](CO)NC(=O)[C@H](CO)NC(=O)[C@@H](NC(=O)[C@H](CC(=O)O)NC(=O)[C@H](CO)NC(=O)[C@@H](NC(=O)[C@H](Cc1ccccc1)NC(=O)[C@@H](NC(=O)CNC(=O)[C@H](CCC(=O)O)NC(=O)[C@H](C)NC(=O)[C@@H](N)Cc1c[nH]cn1)[C@@H](C)O)[C@@H](C)O)C(C)C)C(=O)N[C@@H](C)C(=O)N[C@@H](Cc1c[nH]c2ccccc12)C(=O)N[C@@H](CC(C)C)C(=O)N[C@H](C(=O)N[C@@H](CCCNC(=N)N)C(=O)NCC(=O)N[C@@H](CCCNC(=N)N)C(=O)NCC(=O)O)C(C)C`, the Vr in data set [4] stood at 14.1 mL.

`CC[C@H](C)[C@H](NC(=O)[C@H](Cc1ccccc1)NC(=O)[C@H](CCC(=O)O)NC(=O)[C@H](CCCCNC(=O)COc1ccc(-c2ccc(F)cc2F)cc1C(=O)O)NC(=O)[C@H](C)NC(=O)[C@H](C)NC(=O)[C@H](CCC(N)=O)NC(=O)CNC(=O)[C@H](CCC(=O)O)NC(=O)[C@H](CC(C)C)NC(=O)[C@H](Cc1ccc(O)cc1)NC(=O)[C@H](CO)NC(=O)[C@H](CO)NC(=O)[C@@H](NC(=O)[C@H](CC(=O)O)NC(=O)[C@H](CO)NC(=O)[C@@H](NC(=O)[C@H](Cc1ccccc1)NC(=O)[C@@H](NC(=O)CNC(=O)[C@H](CCC(=O)O)NC(=O)[C@H](C)NC(=O)[C@@H](N)Cc1cnc[nH]1)[C@@H](C)O)[C@@H](C)O)C(C)C)C(=O)N[C@@H](C)C(=O)N[C@@H](Cc1c[nH]c2ccccc12)C(=O)N[C@@H](CC(C)C)C(=O)N[C@H](C(=O)N[C@@H](CCCNC(=N)N)C(=O)NCC(=O)N[C@@H](CCCNC(=N)N)C(=O)NCC(=O)O)C(C)C`: the outcome in the data set with Mus musculus [1] was inactive. Besides, on Albumin, the PB result is “Dose-dependent effect”.

With `CC[C@H](C)[C@H](NC(=O)[C@H](Cc1ccccc1)NC(=O)[C@H](CCC(=O)O)NC(=O)[C@H](CCCCNC(=O)[C@H](CCCNC(=O)COc1ccc(-c2ccc(F)cc2F)cc1C(=O)O)NC(=O)CC[C@H](NC(=O)Cc1c(C)n(C(=O)c2ccc(Cl)cc2)c2ccc(OC)cc12)C(=O)O)NC(=O)[C@H](C)NC(=O)[C@H](C)NC(=O)[C@H](CCC(N)=O)NC(=O)CNC(=O)[C@H](CCC(=O)O)NC(=O)[C@H](CC(C)C)NC(=O)[C@H](Cc1ccc(O)cc1)NC(=O)[C@H](CO)NC(=O)[C@H](CO)NC(=O)[C@@H](NC(=O)[C@H](CC(=O)O)NC(=O)[C@H](CO)NC(=O)[C@@H](NC(=O)[C@H](Cc1ccccc1)NC(=O)[C@@H](NC(=O)CNC(=O)[C@H](CCC(=O)O)NC(=O)[C@H](C)NC(=O)[C@@H](N)Cc1cnc[nH]1)[C@@H](C)O)[C@@H](C)O)C(C)C)C(=O)N[C@@H](C)C(=O)N[C@@H](Cc1c[nH]c2ccccc12)C(=O)N[C@@H](CC(C)C)C(=O)N[C@H](C(=O)N[C@@H](CCCNC(=N)N)C(=O)NCC(=O)N[C@@H](CCCNC(=N)N)C(=O)NCC(=O)O)C(C)C`, in the data set on Mus musculus [2], the AUC is 642 mmol·min/L. In [3], the half-life was found to be 299 min. In addition, the Activity in [7] was 21.6 nm; with Mus musculus [9] it was 1.62 g. Further, the outcome (in the data set with Mus musculus [1]; in data set [8]) was Active. In addition, the Vr in data set [4] amounted to 6.6 mL. Moreover, the Tmax in [6] was found to be 240 min. Further, the PB result on Albumin is on record as “Dose-dependent effect”.

On to `CC[C@H](C)[C@H](NC(=O)[C@H](Cc1ccccc1)NC(=O)[C@H](CCC(=O)O)NC(=O)[C@H](CCCCN)NC(=O)[C@H](C)NC(=O)[C@H](C)NC(=O)[C@H](CCC(N)=O)NC(=O)CNC(=O)[C@H](CCC(=O)O)NC(=O)[C@H](CC(C)C)NC(=O)[C@H](Cc1ccc(O)cc1)NC(=O)[C@H](CO)NC(=O)[C@H](CO)NC(=O)[C@@H](NC(=O)[C@H](CC(=O)O)NC(=O)[C@H](CO)NC(=O)[C@@H](NC(=O)[C@H](Cc1ccccc1)NC(=O)[C@@H](NC(=O)CNC(=O)[C@H](CCC(=O)O)NC(=O)[C@H](C)NC(=O)[C@H](Cc1cnc[nH]1)NC(=O)[C@H](CCCNC(=N)N)NC(=O)[C@H](CCC(=O)O)NC(=O)[C@H](Cc1ccccc1)NC(=O)[C@H](CCC(=O)O)NC(=O)[C@H](CC(=O)O)NC(=O)[C@@H](N)Cc1cnc[nH]1)[C@@H](C)O)[C@@H](C)O)C(C)C)C(=O)N[C@@H](C)C(=O)N[C@@H](Cc1c[nH]c2ccccc12)C(=O)N[C@@H](CC(C)C)C(=O)N[C@H](C(=O)N[C@@H](CCCCN)C(=O)NCC(=O)N[C@@H](CCCNC(=N)N)C(N)=O)C(C)C`, for which the half-life in data set [10] was less than 2 min.
